Values after ≈ are worked out from the molar mass of the structure shown.
Legend:
Serratia marcescens = assay: In vitro antibacterial activity expressed as MIC against Serratia marcescens; assay type: functional
Enterococcus faecalis = assay: In vitro antibacterial activity expressed as MIC against Enterococcus faecalis; assay type: functional
Proteus mirabilis [1] = assay: (§1) In vitro antibacterial activity expressed as MIC against Proteus mirabilis; assay type: functional
[2] = molecular target: T1, DNA gyrase (Escherichia coli) (UniProt P0AES6+P0AES4); assay: In vitro antibacterial activity expressed as MIC against Escherichia coli HR DNA gyrase; assay type: protein-complex assay
Pseudomonas aeruginosa = assay: In vitro antibacterial activity expressed as MIC against Pseudomonas aeruginosa; assay type: functional
Providencia stuartii = assay: In vitro antibacterial activity expressed as MIC against Providencia stuartii II; assay type: functional
[3] = molecular target: T1, DNA gyrase (Escherichia coli); assay: In vitro inhibitory concentration which show total effect against Escherichia coli HR DNA gyrase; assay type: protein-complex assay
Klebsiella aerogenes [4] = assay: (§2) In vitro antibacterial activity expressed as MIC against Enterobacter aerogenes; assay type: functional
[5] = molecular target: T1, DNA gyrase (Escherichia coli); assay: In vitro inhibitory least concentration which show effect against Escherichia coli HR DNA gyrase; assay type: protein-complex assay
Escherichia coli = assay: In vitro antibacterial activity expressed as MIC against Escherichia coli; assay type: functional
Klebsiella oxytoca [6] = assay: (§3) In vitro antibacterial activity expressed as MIC against Klebsiella oxytoca; assay type: functional
Morganella morganii = assay: In vitro antibacterial activity expressed as MIC against Morganella morganii II; assay type: functional
[7] = tested on: Staphylococcus epidermidis; assay: In vitro antibacterial activity expressed as MIC against Staphylococcus epidermidis; assay type: functional
Streptococcus pneumoniae = assay: In vitro antibacterial activity expressed as MIC against Streptococcus pneumoniae; assay type: functional
[8] = In vitro antibacterial activity expressed as MIC against Clostridium perfringens; assay type: functional
Providencia rettgeri [9] = assay: (§4) In vitro antibacterial activity expressed as MIC against Providencia rettgeri; assay type: functional
Haemophilus influenzae [10] = assay: (§5) In vitro antibacterial activity expressed as MIC against Haemophilus influenzae; assay type: functional
Staphylococcus aureus = assay: In vitro antibacterial activity expressed as MIC against Staphylococcus aureus; assay type: functional
Klebsiella oxytoca [11] = assay: as §3
Haemophilus influenzae [12] = assay: as §5
Providencia rettgeri [13] = assay: as §4
Klebsiella aerogenes [14] = assay: as §2
Proteus mirabilis [15] = assay: as §1

N[C@H]1CCN(c2cc3c(cc2F)c(=O)c(C(=O)O)cn3C2CC2)C1
MIC (Serratia marcescens): 0.03 µg/mL (≈ 0.0905 µM) | MIC (Enterococcus faecalis): 0.25 µg/mL (≈ 0.754 µM) | MIC (Proteus mirabilis [1]): 0.03 µg/mL (≈ 0.0905 µM) | MIC [2]: 0.005 µg/mL (≈ 0.0151 µM) | MIC (Pseudomonas aeruginosa): 0.25 µg/mL (≈ 0.754 µM) | MIC (Providencia stuartii): 0.03 µg/mL (≈ 0.0905 µM) | IC100 [3]: 20 µg/mL | MIC (Klebsiella aerogenes [4]): 0.016 µg/mL (≈ 0.0483 µM) | IC0 [5]: 0.24 µg/mL | MIC (Escherichia coli): 0.008 µg/mL (≈ 0.0241 µM) | MIC (Klebsiella oxytoca [6]): 0.03 µg/mL (≈ 0.0905 µM) | MIC (Morganella morganii): 0.016 µg/mL (≈ 0.0483 µM) | MIC [7]: 0.03 µg/mL (≈ 0.0905 µM) | MIC (Streptococcus pneumoniae): 0.13 µg/mL (≈ 0.392 µM) | MIC [8]: 0.25 µg/mL (≈ 0.754 µM) | MIC (Providencia rettgeri [9]): 0.5 µg/mL (≈ 1.51 µM) | MIC (Haemophilus influenzae [10]): 0.002 µg/mL (≈ 0.00604 µM) | MIC (Staphylococcus aureus): 0.06 µg/mL (≈ 0.181 µM)

N[C@H]1CCN(c2cc(F)c3c(=O)c(C(=O)O)cn(C4CC4)c3c2)C1
MIC (Serratia marcescens): 0.5 µg/mL (≈ 1.51 µM) | MIC (Enterococcus faecalis): 16 µg/mL (≈ 48.3 µM) | MIC (Proteus mirabilis [1]): 0.5 µg/mL (≈ 1.51 µM) | MIC [2]: 0.156 µg/mL (≈ 0.471 µM) | MIC (Pseudomonas aeruginosa): 4 µg/mL (≈ 12.1 µM) | MIC (Providencia stuartii): 1 µg/mL (≈ 3.02 µM) | IC100 [3]: 20 µg/mL | MIC (Klebsiella aerogenes [4]): 0.5 µg/mL (≈ 1.51 µM) | IC0 [5]: 0.64 µg/mL | MIC (Escherichia coli): 0.25 µg/mL (≈ 0.754 µM) | MIC (Klebsiella oxytoca [6]): 1 µg/mL (≈ 3.02 µM) | MIC (Morganella morganii): 0.25 µg/mL (≈ 0.754 µM) | MIC [7]: 8 µg/mL (≈ 24.1 µM) | MIC (Streptococcus pneumoniae): 4 µg/mL (≈ 12.1 µM) | MIC (Providencia rettgeri [9]): 16 µg/mL (≈ 48.3 µM) | MIC (Haemophilus influenzae [10]): 0.13 µg/mL (≈ 0.392 µM) | MIC (Staphylococcus aureus): 8 µg/mL (≈ 24.1 µM)

N[C@H]1CCN(c2ccc3c(=O)c(C(=O)O)cn(C4CC4)c3c2F)C1
MIC (Serratia marcescens): 0.03 µg/mL (≈ 0.0905 µM) | MIC (Enterococcus faecalis): 0.25 µg/mL (≈ 0.754 µM) | MIC (Proteus mirabilis [1]): 0.03 µg/mL (≈ 0.0905 µM) | MIC [2]: 0.009 µg/mL (≈ 0.0272 µM) | MIC (Pseudomonas aeruginosa): 0.25 µg/mL (≈ 0.754 µM) | MIC (Providencia stuartii): 0.06 µg/mL (≈ 0.181 µM) | IC100 [3]: 10 µg/mL | MIC (Klebsiella aerogenes [4]): 0.03 µg/mL (≈ 0.0905 µM) | IC0 [5]: 0.32 µg/mL | MIC (Escherichia coli): 0.007 µg/mL (≈ 0.0211 µM) | MIC (Klebsiella oxytoca [6]): 0.06 µg/mL (≈ 0.181 µM) | MIC (Morganella morganii): 0.015 µg/mL (≈ 0.0453 µM) | MIC [7]: 0.125 µg/mL (≈ 0.377 µM) | MIC (Streptococcus pneumoniae): 0.5 µg/mL (≈ 1.51 µM) | MIC [8]: 0.5 µg/mL (≈ 1.51 µM) | MIC (Providencia rettgeri [9]): 1 µg/mL (≈ 3.02 µM) | MIC (Haemophilus influenzae [10]): 0.007 µg/mL (≈ 0.0211 µM) | MIC (Staphylococcus aureus): 0.06 µg/mL (≈ 0.181 µM)

N[C@H]1CCN(c2cc(F)c3c(=O)c(C(=O)O)cn(C4CC4)c3c2F)C1
MIC (Serratia marcescens): 0.25 µg/mL (≈ 0.716 µM) | MIC (Enterococcus faecalis): 4 µg/mL (≈ 11.5 µM) | MIC (Proteus mirabilis [1]): 0.13 µg/mL (≈ 0.372 µM) | MIC [2]: 0.078 µg/mL (≈ 0.223 µM) | MIC (Pseudomonas aeruginosa): 2 µg/mL (≈ 5.73 µM) | MIC (Providencia stuartii): 0.5 µg/mL (≈ 1.43 µM) | IC100 [3]: 10 µg/mL | MIC (Klebsiella aerogenes [4]): 0.25 µg/mL (≈ 0.716 µM) | IC0 [5]: 0.32 µg/mL | MIC (Escherichia coli): 0.06 µg/mL (≈ 0.172 µM) | MIC (Klebsiella oxytoca [6]): 0.5 µg/mL (≈ 1.43 µM) | MIC (Morganella morganii): 0.06 µg/mL (≈ 0.172 µM) | MIC [7]: 0.5 µg/mL (≈ 1.43 µM) | MIC (Streptococcus pneumoniae): 4 µg/mL (≈ 11.5 µM) | MIC [8]: 1 µg/mL (≈ 2.86 µM) | MIC (Providencia rettgeri [9]): 8 µg/mL (≈ 22.9 µM) | MIC (Haemophilus influenzae [10]): 0.06 µg/mL (≈ 0.172 µM) | MIC (Staphylococcus aureus): 1 µg/mL (≈ 2.86 µM)

O=C(O)c1cn(C2CC2)c2cc(N3CCNCC3)c(F)cc2c1=O [CIPROFLOXACIN]
MIC (Serratia marcescens): 0.03 µg/mL (≈ 0.0905 µM) | MIC (Enterococcus faecalis): 0.5 µg/mL (≈ 1.51 µM) | MIC (Klebsiella oxytoca [11]): 0.06 µg/mL (≈ 0.181 µM) | MIC [2]: 0.009 µg/mL (≈ 0.0272 µM) | MIC (Providencia stuartii): 0.03 µg/mL (≈ 0.0905 µM) | IC0 [3]: 0.12 µg/mL | IC100 [3]: 10 µg/mL | MIC (Morganella morganii): 0.08 µg/mL (≈ 0.241 µM) | MIC [7]: 0.5 µg/mL (≈ 1.51 µM) | MIC (Streptococcus pneumoniae): 0.25 µg/mL (≈ 0.754 µM) | MIC (Haemophilus influenzae [12]): 0.03 µg/mL (≈ 0.0905 µM) | MIC (Providencia rettgeri [13]): 0.5 µg/mL (≈ 1.51 µM) | MIC (Staphylococcus aureus): 0.25 µg/mL (≈ 0.754 µM) | MIC (Klebsiella aerogenes [14]): 0.03 µg/mL (≈ 0.0905 µM) | MIC (Proteus mirabilis [15]): 0.008 µg/mL (≈ 0.0241 µM)

CCn1cc(C(=O)O)c(=O)c2cc(F)c(N3CCN(C)CC3)cc21
MIC [2]: 0.019 µg/mL (≈ 0.057 µM) | IC0 [3]: 0.64 µg/mL | IC100 [3]: 20 µg/mL

N[C@H]1CCN(c2ccc3c(=O)c(C(=O)O)cn(C4CC4)c3c2)C1
MIC (Serratia marcescens): 0.5 µg/mL (≈ 1.6 µM) | MIC (Enterococcus faecalis): 4 µg/mL (≈ 12.8 µM) | MIC (Proteus mirabilis [1]): 0.13 µg/mL (≈ 0.415 µM) | MIC [2]: 0.009 µg/mL (≈ 0.0287 µM) | MIC (Pseudomonas aeruginosa): 0.5 µg/mL (≈ 1.6 µM) | MIC (Providencia stuartii): 1 µg/mL (≈ 3.19 µM) | IC100 [3]: 20 µg/mL | MIC (Klebsiella aerogenes [4]): 0.06 µg/mL (≈ 0.191 µM) | IC0 [5]: 0.32 µg/mL | MIC (Escherichia coli): 0.03 µg/mL (≈ 0.0957 µM) | MIC (Klebsiella oxytoca [6]): 0.25 µg/mL (≈ 0.798 µM) | MIC (Morganella morganii): 0.13 µg/mL (≈ 0.415 µM) | MIC [7]: 0.25 µg/mL (≈ 0.798 µM) | MIC (Streptococcus pneumoniae): 2 µg/mL (≈ 6.38 µM) | MIC (Providencia rettgeri [9]): 8 µg/mL (≈ 25.5 µM) | MIC (Haemophilus influenzae [10]): 0.08 µg/mL (≈ 0.255 µM) | MIC (Staphylococcus aureus): 0.5 µg/mL (≈ 1.6 µM)

CCn1cc(C(=O)O)c(=O)c2ccc(C)nc21
MIC [2]: 2.5 µg/mL (≈ 10.8 µM) | IC0 [3]: 25 µg/mL | IC100 [3]: 200 µg/mL

— ChEMBL document CHEMBL1149932, “DNA - gyrase inhibition and antibacterial activity of fluoro-quinolones: influence of the position of the fluorine(s)” (1992)
